# How the values were obtained:
# ERα [1] = target: T1, ERα (Homo sapiens, UniProt P03372); assay: green PolarScreen ERα Competitor Assay (fluorescence polarization); type: binding
# T1 construct: purchased Life Technologies
# T1 sequence (P03372 1-595): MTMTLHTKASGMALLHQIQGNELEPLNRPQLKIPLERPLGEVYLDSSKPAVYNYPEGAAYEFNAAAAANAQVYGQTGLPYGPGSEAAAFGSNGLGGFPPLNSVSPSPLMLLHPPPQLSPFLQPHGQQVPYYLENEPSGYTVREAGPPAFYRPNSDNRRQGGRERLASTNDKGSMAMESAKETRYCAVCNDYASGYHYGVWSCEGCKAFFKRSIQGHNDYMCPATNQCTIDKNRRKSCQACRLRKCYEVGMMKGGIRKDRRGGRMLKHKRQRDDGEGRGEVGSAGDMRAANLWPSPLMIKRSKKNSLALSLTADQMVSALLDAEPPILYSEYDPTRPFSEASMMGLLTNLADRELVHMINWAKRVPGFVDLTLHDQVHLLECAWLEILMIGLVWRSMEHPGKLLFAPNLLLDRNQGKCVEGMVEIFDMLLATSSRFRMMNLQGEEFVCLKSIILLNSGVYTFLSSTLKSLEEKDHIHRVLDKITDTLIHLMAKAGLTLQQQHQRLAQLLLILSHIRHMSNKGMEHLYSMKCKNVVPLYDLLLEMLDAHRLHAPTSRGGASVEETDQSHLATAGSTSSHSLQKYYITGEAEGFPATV
# Description: The ERα binding affinities of representative compounds predicted as ERα antagonists were measured by fluorescence polarization procedure using green PolarScreen™ ERα Competitor Assay kit (Life Technologies, CA, United States of America). Briefly, 75 nM ERα together with 4.5 nM fluormone was mixed with a series of concentrations of the test compounds in the assay buffer. Then, they were incubated for 2 h in room temperature in black low volume 384-well assay plate with NBS surface (Corning, NY, United States of America) for fluorescence polarization assay. Subsequently, the detection wavelength was set at excitation wavelength 485 nm and emission wavelength 535 nm with bandwidths of 25/20 nm in EnVision Workstation version 1.7 (PerkinElmer, MA, United States of America). 2104 EnVision® Multilabel Plate Reader was performed for the measurements.
# ERα [2] = assay: Luciferase reporter gene assay for ERα in MCF-7 cells; type: cell-based, human; details: MCF-7 cells transfected with ERE-luc reporter, three concentrations, 24 h
# Description: Cell transfection and luciferase activity assay were utilized to investigate the effects of the compounds on ER transcriptional activation. The human breast cancer cell line MCF-7 was obtained from the Beijing Key Laboratory of Drug Target Research and Drug Screening, Chinese Academy of Medical Sciences (Beijing, China). Dulbecco's Modified Eagle's Medium (DMEM) culture medium containing 10% fetal calf serum (FBS), 100 U/mL penicillin, and 100 μg/mL streptomycin was used as complete culture medium. The culture conditions were at 37°C, saturated humidity, and 5% CO2. The culture medium was changed every day and when the confluence of cells reached 90%, MCF-7 cells were digested with 0.25% trypsin containing 0.02% EDTA and then cultured under the same culture conditions. MCF-7 cells in logarithmic growth phase were resuspended in 3 mL complete culture medium and were seeded on 24-well plates with a density of 1 × 10^5/well overnight. After incubation for 24 h, cells were grown to approximately 60–80% confluence and then washed by culture medium without serum. MCF-7 cells were cotransfected with the reporter plasmid pGL2-ERE3-luc. Based on the manufacturer's instructions, transfection was mediated by lipofectamine 3000 (Invitrogen). After incubation for 12 h, transfection medium was eliminated, and MCF-7 cells were treated with three concentrations of compounds for 24 h. Then, MCF-7 cells were washed with phosphate-buffered saline (PBS) and cell lysis was collected after oscillation with a low speed. Finally, the luciferase activity was determined by dual-luciferase reporter assay system (Promega) according to the product manual.
# [3] = 75 nM ERα, 4.5 nM fluormone, 2 h, room temperature
SMILES,IC50 (ERα [1]; values in μM) [µM],"Antiestrogenic effects (ERα transactivation, luciferase activity) (ERα [2])",IC50 (ERα [1]; [3]) [µM]
COc1cc(C2Oc3cc([C@H]4Oc5cc(O)cc(O)c5C(=O)[C@@H]4O)ccc3OC2CO)ccc1O (stereo partly shown) [silibinin],> 10,,
O=c1c(-c2ccc(O)cc2)coc2cc(O)cc(O)c12 [Genistein],,decrease the expression of the ERα remarkably at a dose-dependent manner,
O=c1c(-c2ccc(O)cc2)coc2cc(O)ccc12 [Daidzein],,antagonist activity was lower than that of genistein,
O=C1C[C@@H](c2ccc(O)cc2)Oc2cc(O)cc(O)c21 [Naringenin],,weak antiestrogenic effects,0.968 ± 0.0709
COc1ccc(-c2cc(=O)c3c(O)cc(O[C@@H]4O[C@H](CO[C@@H]5O[C@@H](C)[C@H](O)[C@@H](O)[C@H]5O)[C@@H](O)[C@H](O)[C@H]4O)cc3o2)cc1O [diosmin],> 10,,
C[C@H]1[C@H](C)CC[C@]2(C(=O)O)CC[C@]3(C)C(=CC[C@@H]4[C@@]5(C)CC[C@H](O)C(C)(C)[C@@H]5CC[C@]43C)[C@H]12 [Ursolic acid],,antiestrogenic effects only at high dose,
C[C@@H]1O[C@@H](O[C@H]2[C@H](Oc3cc(O)c4c(c3)O[C@H](c3ccc(O)cc3)CC4=O)O[C@H](CO)[C@@H](O)[C@@H]2O)[C@H](O)[C@H](O)[C@H]1O [naringin],> 10,,
O=c1oc2c(O)c(O)cc3c(=O)oc4c(O)c(O)cc1c4c23 [Ellagic acid],,decrease the expression of ERα at high and medium concentrations,0.0626 ± 0.00934
O=C(CCc1ccc(O)cc1)c1c(O)cc(O)cc1O [Phloretin],,regulated the expression of ERα in MCF-7 cells in a dose-dependent way,0.0745 ± 0.0242
"O=C(OC1Cc2c(O)cc(O)cc2OC1c1cc(O)c(O)c(O)c1)c1cc(O)c(O)c(O)c1 (single isomer, unassigned; (-)) [EGCG, (−)-epigallocatechin-3-gallate]",,,0.066 ± 0.0116
